Target: T1, CHRM5 (Homo sapiens, UniProt P08912)
T1 construct: purchased Promega (in-house HiBiT-GPCR construct library, NanoBRET)
T1 sequence (P08912 1-532): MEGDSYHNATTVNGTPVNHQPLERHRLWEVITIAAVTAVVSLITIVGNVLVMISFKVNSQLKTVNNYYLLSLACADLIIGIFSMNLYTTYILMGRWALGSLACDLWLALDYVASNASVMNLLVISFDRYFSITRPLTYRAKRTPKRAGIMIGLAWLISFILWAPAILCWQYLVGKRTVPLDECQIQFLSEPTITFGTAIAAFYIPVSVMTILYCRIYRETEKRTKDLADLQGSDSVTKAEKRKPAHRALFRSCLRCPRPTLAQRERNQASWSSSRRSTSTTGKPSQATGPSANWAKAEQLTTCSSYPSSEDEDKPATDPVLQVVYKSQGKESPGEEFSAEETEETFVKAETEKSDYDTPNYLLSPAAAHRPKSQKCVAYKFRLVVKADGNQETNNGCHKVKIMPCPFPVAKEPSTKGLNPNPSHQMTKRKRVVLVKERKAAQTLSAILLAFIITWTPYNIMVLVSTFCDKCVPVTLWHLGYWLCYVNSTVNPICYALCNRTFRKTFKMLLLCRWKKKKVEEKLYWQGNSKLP
Test: NanoBRET screen HiBiT-CHRM5 in HEK293
Assay type: binding
Protocol: Each tracer candidate was screened across the entire library of HiBiT-GPCR constructs using NanoBRET as the detection modality. As depicted in Figure 4A, the specificity of interactions was evaluated through decrease in BRET due to competitive displacement of a bound tracer by excess parental compound. Each tracer was analyzed for binding to each HiBiT-GPCR fusion in the absence and in the presence of competing parental compound. Briefly, HEK293 cells were transfected with HiBiT-GPCR constructs diluted into promoterless DNA to reduce expression and maximize translocation to the cell surface. Each tracer candidate was then screened at concentrations of 1 μM and 0.1 μM across cells expressing these fusions. Cells were treated for 1.5 h with tracer either alone or in the presence of 20 μM competing parental compound (i.e., control). BRET was measured upon addition of purified LgBiT and subsequent complementation with HiBiT genetically fused to a GPCR. The specificity of interactions was assessed through a decrease in BRET signal due to competitive displacement of the bound tracer. To further gauge the robustness of these interactions, the fold response over the control (i.e., BRETtracer/BRETcontrol) was calculated. We chose a 1.5-fold response, which translates to ≥7-fold signal over noise as the minimal threshold required to score an interaction as positive.
HiBiT-GPCR DNA constructs were diluted in 10 mM Tris pH 8 to a final concentration of 0.01 μg/μL, arrayed in 96-well plates and stored at −20 °C. For transfection, HEK293 cells were suspended in Opti-MEM (without phenol red) supplemented with 2% fetal bovine serum (Seradigm) and 100 units/mL penicillin–streptomycin (Gibco) at a final concentration of 220,000 cells/mL and dispensed into white 96-well plates at 90 μL/well. Subsequent transfections and screens were carried using an Agilent Bravo Automated Liquid Handling Platform. First, the 96-well HiBiT DNA arrays were diluted 25-fold in Opti-MEM (without serum or phenol red) to a final concentration of 0.0004 μg/μL and 20 μL of the diluted DNAs were transferred into new 96-well plates. Next, promoterless carrier DNA (1 μg/μL) was diluted 25-fold (0.04 μg/μL) and then dispensed into the diluted arrays at 20 μL/well. Following brief mixing, Viafect transfection reagent (Promega) diluted 16-fold into Opti-MEM was dispensed into the plates at 40 μL/well. After mixing by pipetting, plates were incubated for 10 min on the pipetting station deck. The DNA-transfection reagent complexes were then added to plates containing cells. To facilitate the screen, 10 μL of DNA-transfection reagent complexes were added in duplicates to the top 4 and bottom 4 rows, resulting in two identical 48-well arrays per plate. Plates with transfected cells were incubated for 18–20 h at 37 °C/5% CO2. A screen of each tracer across the entire library using two different concentrations requires duplicate plates of transfected cells. Depending on the number of tracers being screened, transfections can be scaled up using the same ratios. The next day, for each tracer, four 20× screening solutions in tracer dilution buffer (Promega) were prepared: two duplicates at final concentration of 20 μM and two duplicates at a final concentration of 2 μM. […] The four resulting solutions were diluted 4-fold in Opti-MEM without serum or phenol red to generate 5× solutions (5 µM and 0.5 µM tracer +/− 100 μM competing compound). To screen the library, a BioTek MultiFlo FX liquid dispenser was used to dispense 22.5 µL of tracer solution to the top 4 rows and 22.5 µL tracer + competing compound solution to the 4 bottom rows. Plates were briefly mixed on an orbital shaker and incubated for 1.5 h at room temperature. […] Plates were briefly mixed on an orbital shaker and incubated for 15 min to allow complementation.

| Compound | NanoBRET Fold Response (CHRM5, tracer 0.1μM) | NanoBRET Fold Response (CHRM5, tracer 1μM) | further results |
| --- | --- | --- | --- |
| CCOC(=O)c1cc(C#N)c(N2CCC(C(=O)NS(=O)(=O)Cc3ccccc3/C=C/C(=O)NCCNC(=O)CCc3ccc4n3[B-](F)(F)[N+]3=C(c5ccc[nH]5)C=CC3=C4)CC2)nc1C [AZD1283-1-NB590] |  |  | NanoBRET Fold Response (CHRM5, 0.1μM): 1.08; NanoBRET Fold Response (CHRM5, 1μM): 1.08 |
| N#CN=C(NCCCOc1cccc(CN2CCCCC2)c1)NCCNC(=O)CCOCCOCCOCCOCCNC(=O)CCc1ccc2n1[B-](F)(F)[N+]1=C(c3ccc[nH]3)C=CC1=C2 [Aminopotentidine-2-NB590] | 1.02 | 1.10 |  |
| CN(C)CCC=C1c2ccccc2CCc2ccc(C(=O)NCCNC(=O)CCOCCOCCOCCOCCNC(=O)CCc3ccc4n3[B-](F)(F)[N+]3=C(c5ccc[nH]5)C=CC3=C4)cc21 [Amitriptyline-a-2-NB590] |  |  | NanoBRET Fold Response (tracer at 1μM): 1.23 |
| CN(C)CCC=C1c2ccccc2CCc2ccc(C(=O)NCCNC(=O)CCOCCOCCOCCOCCNC(=O)CCc3ccc4n3[B-](F)(F)[N+]3=C(c5ccc[nH]5)C=CC3=C4)cc21 [Amitriptyline-b-2-NB590] |  |  | NanoBRET Fold Response (tracer at 0.1μM, listed as amitriptyline-b-2-NB590): 3.47; NanoBRET Fold Response (tracer at 1μM, listed as amitriptyline-b-2-NB590): 4.23 |
| CN(CCC=C1c2ccccc2CCc2ccccc21)C(=O)CCOCCOCCOCCOCCNC(=O)CCc1ccc2n1[B-](F)(F)[N+]1=C(c3ccc[nH]3)C=CC1=C2 [Amitriptyline-e-2-NB590] |  |  | NanoBRET Fold Response (tracer at 1μM): 1.14 |
| COc1ccc2c(n1)c(CCNC(C)=O)cn2CCNC(=O)CCc1ccc2n1[B-](F)(F)[N+]1=C(c3ccc[nH]3)C=CC1=C2 [Azamelatonin-1-NB590] |  |  | NanoBRET Fold Response (0.1μM tracer): 0.89; NanoBRET Fold Response (1μM tracer): 1.23 |
| COc1ccc2[nH]c(-c3ccc(CNC(=O)CCOCCOCCOCCOCCNC(=O)CCc4ccc5n4[B-](F)(F)[N+]4=C(c6ccc[nH]6)C=CC4=C5)cc3)c(CCNC(C)=O)c2n1 [AzomelatoninICO9-2-NB590] |  |  | NanoBRET Fold Response (0.1μM tracer): 0.90; NanoBRET Fold Response (1μM tracer): 0.97 |
| O=C(CCOCCOCCOCCOCCNC(=O)CCc1ccc2n1[B-](F)(F)[N+]1=C(c3ccc[nH]3)C=CC1=C2)NCCCN1CCN(C2=Nc3cc(Cl)ccc3Nc3ccccc32)CC1 [Clozapine-a-2-NB590] |  |  | NanoBRET Fold Response (CHRM5, 0.1μM tracer): 1.10; NanoBRET Fold Response (CHRM5, 1μM tracer): 0.91 |
| CN1CCN(C2=Nc3cc(Cl)ccc3Nc3ccc(CNC(=O)CCOCCOCCOCCOCCNC(=O)CCc4ccc5n4[B-](F)(F)[N+]4=C(c6ccc[nH]6)C=CC4=C5)cc32)CC1 [Clozapine-b-2-NB590] |  |  | NanoBRET Fold Response (CHRM5, 0.1μM tracer): 1.00 |
| CN1CCN(C2=Nc3cc(Cl)ccc3N(CC(=O)NCCOCCOCCOCCOCCNC(=O)CCc3ccc4n3[B-](F)(F)[N+]3=C(c5ccc[nH]5)C=CC3=C4)c3ccccc32)CC1 [Clozapine-c-2-NB590] |  |  | NanoBRET Fold Response (CHRM5, 0.1μM tracer): 1.00; NanoBRET Fold Response (CHRM5, 1μM tracer): 0.86 |
| O=C(CCOCCOCCOCCOCCNC(=O)CCc1ccc2n1[B-](F)(F)[N+]1=C(c3ccc[nH]3)C=CC1=C2)NCCCN1CCN(C2=Nc3ccccc3Oc3ccc(Cl)cc32)CC1 [Loxapine-a-2-NB590] | 0.99 | 0.89 |  |
| COc1ccccc1N1CCN(CCCCN2C(=O)c3ccc(CNC(=O)CCOCCOCCOCCOCCNC(=O)CCc4ccc5n4[B-](F)(F)[N+]4=C(c6ccc[nH]6)C=CC4=C5)cc3C2=O)CC1 [NAN-190-2-NB590] | 0.90 |  |  |
| COc1ccccc1N1CCN(CCCCN2C(=O)c3ccc(CNC(=O)CCOCCNC(=O)c4ccc(CNC(=O)CCc5ccc6n5[B-](F)(F)[N+]5=C(c7ccc[nH]7)C=CC5=C6)cc4)cc3C2=O)CC1 [NAN-190-3-NB590] | 1.00 | 1.24 |  |
| O=C(CCc1ccc2n1[B-](F)(F)[N+]1=C(c3ccc[nH]3)C=CC1=C2)NCc1ccc(C(=O)NCCOCCC(=O)N[C@@H]2CC[C@@]3(O)[C@H]4Cc5ccc(O)c6c5[C@@]3(CCN4CC3CC3)[C@H]2O6)cc1 [Naltrexone-3-NB590] | 1.18 | 0.79 |  |
| Cc1cc2c(s1)Nc1ccccc1N=C2N1CCN(CCCNC(=O)CCOCCOCCOCCOCCNC(=O)CCc2ccc3n2[B-](F)(F)[N+]2=C(c4ccc[nH]4)C=CC2=C3)CC1 [Olanzapine-a-2-NB590] | 1.05 | 1.00 |  |
| O=C(CCc1ccc2n1[B-](F)(F)[N+]1=C(c3ccc[nH]3)C=CC1=C2)NCc1ccc(C(=O)NCCOCCOCCNCC(O)COc2cccc3ccccc23)cc1 (centres unmarked) [Propranolol-3-NB590] |  |  | NanoBRET Fold Response (CHRM5, 0.1μM): 1.00; NanoBRET Fold Response (CHRM5, 1μM): 1.03 |
| O=C(CCc1ccc2n1[B-](F)(F)[N+]1=C(c3ccc[nH]3)C=CC1=C2)NCCOCCOCCNC(=O)OCCOCCN1CCN(C2=Nc3ccccc3Sc3ccccc32)CC1 [Quetiapine-a-2-NB590] | 1.18 | 1.36 |  |
| Cc1nc2n(c(=O)c1CCN1CCC(c3noc4cc(F)ccc34)CC1)CCCC2OC(=O)NCCOCCOCCOCCOCCNC(=O)CCc1ccc2n1[B-](F)(F)[N+]1=C(c3ccc[nH]3)C=CC1=C2 (centres unmarked) [Risperidone-2-NB590] | 1.07 | 0.95 |  |
| CC(C)N(CC[C@H](c1ccccc1)c1cc(CCNC(=O)CCOCCOCCOCCOCCNC(=O)CCc2ccc3n2[B-](F)(F)[N+]2=C(c4ccc[nH]4)C=CC2=C3)ccc1O)C(C)C [Tolterodine-2-NB590] | 3.27 | 2.82 |  |
| CC(C)N(CC[C@H](c1ccccc1)c1cc(CCNC(=O)c2ccc(CNC(=O)CCc3ccc4n3[B-](F)(F)[N+]3=C(c5ccc[nH]5)C=CC3=C4)cc2)ccc1O)C(C)C [Tolterodine-BZ-NB590] | 2.88 | 1.94 |  |
| CCCn1c(=O)c2[nH]c(-c3ccc(OCC(=O)NCCNC(=O)CCOCCNC(=O)c4ccc(CNC(=O)CCc5ccc6n5[B-](F)(F)[N+]5=C(c7ccc[nH]7)C=CC5=C6)cc4)cc3)nc2n(CCC)c1=O [XAC-3-NB590] | 0.98 | 0.86 |  |
